# Data reported in ChEMBL document CHEMBL1132589, “Phosphotyrosine-containing dipeptides as high-affinity ligands for the p56lck SH2 domain” (J Med Chem, 1999).
# Where a SMILES comes first, the peptide text is derived from it. [ ]: non-standard residue; d: D form. The star is where a group is joined. pY = N[C@@H](Cc1ccc(OP(=O)(O)O)cc1)C(=O)O; NHPhenethyl = c1ccc(CCN*)cc1; NHBn = c1ccc(CN*)cc1; NHPh = c1ccc(N*)cc1
# Biological target: Tyrosine-protein kinase Lck (Homo sapiens, UniProt P06239)
# Sequence (P06239 whole entry): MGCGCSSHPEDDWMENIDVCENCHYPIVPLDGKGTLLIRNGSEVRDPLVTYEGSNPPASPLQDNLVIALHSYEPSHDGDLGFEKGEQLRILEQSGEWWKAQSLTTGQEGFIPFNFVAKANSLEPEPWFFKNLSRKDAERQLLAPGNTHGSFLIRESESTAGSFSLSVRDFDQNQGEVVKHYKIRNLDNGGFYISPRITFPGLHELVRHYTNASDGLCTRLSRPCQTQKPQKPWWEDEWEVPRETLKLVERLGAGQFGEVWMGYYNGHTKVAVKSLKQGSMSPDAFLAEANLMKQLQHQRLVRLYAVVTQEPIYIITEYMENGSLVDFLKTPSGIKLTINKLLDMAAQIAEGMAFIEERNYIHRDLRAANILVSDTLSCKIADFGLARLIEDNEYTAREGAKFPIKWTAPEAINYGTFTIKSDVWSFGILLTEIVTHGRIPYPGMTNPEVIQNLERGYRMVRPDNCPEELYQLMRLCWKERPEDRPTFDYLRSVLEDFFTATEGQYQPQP
# Description: Binding affinity against p56 Lck tyrosine kinase SH2 domain was measured using glutathione S-transferase (GST) fusion protein
row,Kd [µM],SMILES
1,34,CC(=O)N[C@@H](Cc1ccc(OP(=O)(O)O)cc1)C(=O)N[C@@H](CC(C)C)C(=O)NCc1cccnc1
2,16,CC(=O)N[C@@H](Cc1ccc(OP(=O)(O)O)cc1)C(=O)N[C@@H](CC(C)C)C(=O)NCc1ccncc1
3,8,CC(=O)N[C@@H](Cc1ccc(OP(=O)(O)O)cc1)C(=O)N[C@@H](CC(C)C)C(=O)NCc1ccc(C(C)(C)C)cc1
4,1.5,CC(=O)N[C@@H](Cc1ccc(OP(=O)(O)O)cc1)C(=O)N[C@@H](CC(C)C)C(=O)N[C@@H](C)c1ccc(C)cc1
5,31,CC(=O)N[C@@H](Cc1ccc(OP(=O)(O)O)cc1)C(=O)N[C@@H](CC(C)C)C(=O)NCc1ccccn1
6,12,COc1ccc(CNC(=O)[C@H](CC(C)C)NC(=O)[C@H](Cc2ccc(OP(=O)(O)O)cc2)NC(C)=O)cc1OC
7,1.5,COc1ccc(CNC(=O)[C@H](CC(C)C)NC(=O)[C@H](Cc2ccc(OP(=O)(O)O)cc2)NC(C)=O)cc1
8,2.5,CC(=O)N[C@@H](Cc1ccc(OP(=O)(O)O)cc1)C(=O)N[C@@H](CC(C)C)C(=O)NCc1ccc(C)cc1
9,27,CC(=O)N[C@@H](Cc1ccc(OP(=O)(O)O)cc1)C(=O)N[C@@H](CC(C)C)C(=O)N[C@H](C)c1ccc(C)cc1
10,2,CC(=O)N[C@@H](Cc1ccc(OP(=O)(O)O)cc1)C(=O)N[C@@H](CC(C)C)C(=O)N(C)Cc1ccc(C)cc1
11,0.8,CC(=O)N[C@@H](Cc1ccc(OP(=O)(O)O)cc1)C(=O)N[C@@H](CC(C)C)C(=O)NCc1ccc(C(C)C)cc1
12,20,CC(=O)N[C@@H](Cc1ccc(OP(=O)(O)O)cc1)C(=O)N[C@@H](CC(C)C)C(=O)NCc1ccc(N(C)C)cc1
13,17,COc1ccccc1CNC(=O)[C@H](CC(C)C)NC(=O)[C@H](Cc1ccc(OP(=O)(O)O)cc1)NC(C)=O
14,0.2,COc1ccc(CNC(=O)[C@H](CCC(=O)O)NC(=O)[C@H](Cc2ccc(OP(=O)(O)O)cc2)NC(C)=O)cc1
15,9,COc1cccc(CNC(=O)[C@H](CC(C)C)NC(=O)[C@H](Cc2ccc(OP(=O)(O)O)cc2)NC(C)=O)c1
16,8,CC(=O)N[C@@H](Cc1ccc(OP(=O)(O)O)cc1)C(=O)N[C@@H](CCC(=O)O)C(=O)Nc1ccccc1 (Ac-[pY]-Glu-NHPh)
17,4,CC(=O)N[C@@H](Cc1ccc(OP(=O)(O)O)cc1)C(=O)N[C@@H](CCC(=O)O)C(=O)NCCc1ccccc1 (Ac-[pY]-Glu-NHPhenethyl)
18,16,CC(=O)N[C@@H](Cc1ccc(OP(=O)(O)O)cc1)C(=O)N[C@@H](CC(C)C)C(=O)NCc1ccccc1 (Ac-[pY]-Leu-NHBn)

row,SMILES,Kd [µM]
1,CC(=O)N[C@@H](Cc1ccc(OP(=O)(O)O)cc1)C(=O)N[C@@H](CC(C)C)C(=O)N[C@@H](C)c1ccc(C(C)C)cc1,0.2
